In patent US4051244A, “2,4-Diamino 5-bromo 6-chloro pyrimidines, process for their preparation and use as pharmaceuticals” (Mar-Pha Societe d'Etudes et d'Exploitation de Marques, priority 1975, dated 1977):

Experiments:
[1] = LD 50 in the mouse, oral (cumulative method of Reed and Muench); details: in vivo
Description: (§1) The toxicities of the products according to the invention have been determined on the mouse CD 1 (Charles River) by intravenous and oral methods. The lethal doses 50% (LD 50) are calculated by the cumulative method of Reed J. J. and Muench, H. (Am. J. Hyg. 27, 493, 1938).

[2] = LD 50 in the mouse, intravenous (cumulative method of Reed and Muench); details: in vivo
Description: as §1

[3] = test system: vomitings induced by apomorphine; assay: Anti-emetic test: vomitings induced by apomorphine in the dog, oral; type: in vivo; details: mongrel dog; for ED50: Canis lupus familiaris, read-out: DE 50, dose diminishing by 50% the number of vomitings induced by apomorphine
Text: The anti-emetic properties of the compounds according to the invention are shown by oral way in the mongrel dog in tests in which vomitings are induced by apomorphine according to Chen, G. and Ensor, C. (J. Pharmacol exp. Ther. 98, 24, 1950).
The results are expressed by a DE 50 which represents the dose of product capable of diminishing by 50% the number of vomitings induced by the agent.

[4] = test system: bronchospasms induced by serotonine; assay: Bronchospasms using serotonine in guinea pigs, intravenous; type: in vivo, Albinos Hartley guinea-pigs; details: Cavia porcellus, i.v., anesthesized guinea-pigs, read-out: DE 50, dose reducing by 50% the amplitude of bronchospasms using serotonine in guinea pigs
Text: (§2) The anti-serotonine properties of the compounds according to the invention are shown in vitro and in vivo.
In vivo, the products are applied by intra-venous way to anesthesized Albinos Hartley guinea-pigs. A method originated from Konzett, H. and Rossler, R. is employed (Naunyn. Schmiedeberg's Arch. exp. Path. Pharmakol, 195, 71, 1940). The results, shown in the table hereunder, are expressed by a DE 50 which represents the dose capable of reducing by 50% the amplitude of bronchospasms induced by the administration of serotonine.

[5] = test system: ulcer induced by reserpine; assay: Protection against the ulcer induced by reserpine in a rat, acute oral; type: in vivo, rat CD (Charles River); details: for antiulcer properties (in words): p.o., reserpine and constraint ulcer; for ED50: po, read-out: DA 50, dose protecting 50% of the animals against the ulcer induced by reserpine in a rat
Text: (§3) The anti-ulcer properties of the products according to the invention are shown in the rat CD (Charles River) by acute oral administration using two techniques.
The first technique studies the activity of the product in connection with the experimental ulcer induced by […] according to Brodie, D. A. (Gastroenterology, 43, 675, 1962). The result is expressed by a DA 50 which represents the dose in mg/kg capable of protecting 50% of the animals against the least trace of ulceration of the mucous gastric system.

[6] = test system: isolated duodenum, spasms induced by barium chloride; assay: Spasms of the isolated duodenum of a rat induced by barium chloride (musculotropic)
Text: (§4) The anti-spasmodic properties of the compounds according to the invention are shown by use of the technique of Magnus, R. (Ges. Physiol. 102, 123, 1904) in connection with the spasms of the isolated duodenum of a rat caused by either acetylcholine to research an effect of neurotropic type or by barium chloride to research an effect of musculotropic type.
(§5) The results, shown hereunder, are expressed by a CE 50 which represents the concentration of product in mg/1 capable of decreasing by 50% the amplitude of spasms thus induced.

[7] = test system: isolated duodenum, spasms induced by acetylcholine; assay: Spasms of the isolated duodenum of a rat induced by acetylcholine (neurotropic); details: for spasmolytic effects, both musculotropic and neurotropic (in words): acetylcholine and barium chloride
Text: as §4, §5

[8] = test system: cerebral phosphodiesterases; assay: Inhibition of the phosphodiesterases of the brain; type: biochemical, rat CD (Charles River)
Text: The phosphodiesterasic activity is shown by the method of Kukovetz E. R. and Poech, G. (Arch. Pharmakol. 1970, 267, 189) by utilizing the supernatant part obtained after centrifugation at 10,000 G of the brain of male rats CD (Charles River).
The inhibiting action of the compounds according to the invention on the cerebral phosphodiesterases has been tested and expressed by an inhibiting concentration 50% (CI 50) in micromoles.

[9] = test system: isolated uterus, spasms induced by serotonine; assay: Spasms of isolated uterus of rat induced by serotonine; parameters: species or system rat CD (Charles River); details: for CE 50, spasms of isolated uterus of rat induced by serotonine: in vitro
Text: as §2
In vitro, the action of the products on the spasms induced by the serotonine in the isolated uterus of a rat (rat CD Charles River) is shown, according to the technique of Fanchamps, A., Doepfner, W., Weidman, H. and Cerletti, (A. Schw. Med. Worsch. 90, 1040, 1960). The results, shown in the table hereunder, are expressed by a CE 50 which represents the concentration in mg/1 of the product capable of decreasing by 50% the amplitude of spasms induced by the serotonine.

[10] = test system: constraint ulcer; assay: Protection against constraint ulcer, acute oral; type: in vivo, rat CD (Charles River); details: p.o., rat, 24 hours constraint, read-out: DE 50, dose decreasing by 50% the ulcerating effect (constraint ulcer)
Text: as §3
The second studies the activity of the product in connection with the constraint ulcer according to Rossi, G., Bonfils, S., Leifooche, G. and Lambling A. (C.R. Soc. Biol. 150, 2124, 1956). The result is expressed by a DE 50 which represents the dose of the substance in mg/kg capable of decreasing by 50% the ulcerating effect caused by the 24 hours constraint.

Compound `CNc1nc(Cl)c(Br)c(N2CCN(C)CC2)n1` [Example 1, 2-methylamino-4-(N-methylpiperazinyl) 5-bromo 6-chloro pyrimidine] has an LD50 [1] of 100 mg/kg, an LD50 [2] of 55 mg/kg and an ED50 [3] of 1 mg/kg. The ED50 [4] was 0.08 mg/kg.
With `CC(C)Nc1nc(N2CCN(C)CC2)nc(Cl)c1Br` [Example 2, 2-(N-methylpiperazinyl) 4,isopropylamino 5-bromo 6-chloro pyrimidine] the “antiulcer properties (in words)” value [5] was “outstanding antiulcer properties”, the ED50 [5] was 100 mg/kg and the “CE 50, concentration decreasing by 50% the amplitude of spasms induced by barium chloride” value [6] was 3 mg/L. For the same compound, the “CE 50, concentration decreasing by 50% the amplitude of spasms induced by acetyl-choline” value [7] was 5.5 mg/L, the LD50 [1] was 675 mg/kg and the LD50 [2] was 83 mg/kg. For the same compound, the “inhibiting action on the cerebral phosphodiesterases (in words)” value ([8]; rat brain supernatant) was “interesting inhibiting action”, the IC50 ([8]; supernatant of brain of male rats, 10,000 G, read-out: CI 50, inhibiting concentration 50% on the cerebral phosphodiesterases) was 40 µM and the “CE 50, spasms of isolated uterus of rat induced by serotonine” value (shortened to “CE 50, spasms”) [9] was 0.07 mg/L. For the same compound, the ED50 [3] was greater than 5 mg/kg and the ED50 [4] was 0.45 mg/kg.
With `CC(C)Nc1nc(Cl)c(Br)c(N2CCN(C)CC2)n1` [Example 3] the “antiulcer properties (in words)” value [5] was “outstanding antiulcer properties”, the ED50 [5] was 20 mg/kg and the “CE 50, concentration decreasing by 50% the amplitude of spasms induced by barium chloride” value [6] was 0.6 mg/L. The “CE 50, concentration decreasing by 50% the amplitude of spasms induced by acetyl-choline” value [7] was 1.8 mg/L, the “spasmolytic effects, both musculotropic and neurotropic (in words)” value (“spasmolytic effects” below) [7] was “very interesting” and the LD50 [1] was 200 mg/kg. The LD50 [2] was 86 mg/kg, the “anti-serotonine activity (in words)” value ([9]; in vitro (rat uterus) and in vivo (guinea pig)) was “very high anti-serotonine activity” and the “CE 50, spasms” value [9] was 0.004 mg/L. For the same compound, the ED50 [3] was 1.4 mg/kg, the “anti-emetic activity (in words)” value ([3]; apomorphine) was “very important anti-emetic activity” and the ED50 [10] was 12 mg/kg. It also gave an ED50 [4] of 0.85 mg/kg.
In the case of `CCCCCCCNc1nc(Cl)c(Br)c(N2CCN(C)CC2)n1` [Example 4], the ED50 [5] is reported as greater than 100 mg/kg, the “CE 50, concentration decreasing by 50% the amplitude of spasms induced by barium chloride” value [6] is reported as 1.3 mg/L and the “CE 50, concentration decreasing by 50% the amplitude of spasms induced by acetyl-choline” value [7] is reported as 1.4 mg/L. The “spasmolytic effects” value [7] was “very interesting”, the LD50 [1] was greater than 900 mg/kg and the “CE 50, spasms” value [9] was 0.35 mg/L.
For `CN1CCN(c2nc(N)nc(Cl)c2Br)CC1` [Example 6], the ED50 [5] was greater than 100 mg/kg, the “CE 50, concentration decreasing by 50% the amplitude of spasms induced by barium chloride” value [6] was 0.2 mg/L and the “CE 50, concentration decreasing by 50% the amplitude of spasms induced by acetyl-choline” value [7] was 4 mg/L. The “spasmolytic effects” value [7] was “very interesting”, the LD50 [1] was 600 mg/kg and the LD50 [2] was 48 mg/kg. For the same compound, the “CE 50, spasms” value [9] was 0.05 mg/L.
In the case of `Cc1ccc(N(C)c2nc(Cl)c(Br)c(N3CCN(C)CC3)n2)cc1` [Example 7], the ED50 [5] is reported as greater than 100 mg/kg, the “CE 50, concentration decreasing by 50% the amplitude of spasms induced by barium chloride” value [6] is reported as 0.6 mg/L and the “CE 50, concentration decreasing by 50% the amplitude of spasms induced by acetyl-choline” value [7] is reported as 1.4 mg/L. For the same compound, the “spasmolytic effects” value [7] was “very interesting”, the LD50 [1] was greater than 900 mg/kg and the LD50 [2] was 83 mg/kg. The “CE 50, spasms” value [9] was 0.05 mg/L.
In the case of `Cc1ccc(N(C)c2nc(Cl)c(Br)c(NCCN(C(C)C)C(C)C)n2)cc1` [Example 9], the ED50 [5] is reported as 300 mg/kg, the LD50 [1] is reported as 675 mg/kg and the “CE 50, spasms” value [9] is reported as 0.33 mg/L.
